Key:
spleen and lung cells [1] = assay: Antigen-specific multifunctional T cells after ESAT-6 stimulation (flow cytometry); settings: mouse, in vivo
spleen and lung cells [2] = assay: Type and number of memory T cells in spleen and lung (flow cytometry); format: in vivo, mouse; settings: both spleen and lung cells of immunized mice; compared with MPL as adjuvant; FIG. 1D
Excerpt: In general, when infected with Mycobacterium tuberculosis, Mycobacterium tuberculosis antigen-specific T cells replicate and differentiate to become effector T cells. When the immune response disappears, most of these effector T cells die, and some form long-lasting memory T cells. It is known that the memory T cells thus formed play a critical role in the formation of a rapid acquired defense immunity and maintenance of the memorization of T cells. […] For the experiment, the spleen and lung cells of the mouse obtained in the same manner as in Example 1.2 were washed twice with PBS and then centrifuged. The centrifuged cells were treated with anti-CD3-BV421 (BD Bioscience), anti-CD4-PerCP-Cy5.5 (BD Bioscience), anti-CD8-APC-Cy7 (BD Bioscience), anti-CD44-PE (Ebioscience), anti-CD62L-FITC (Ebioscience), anti-CD127-APC (Ebioscience), etc. Then, they were reacted at 4° C. for 30 minutes. After the reaction was completed, cells were washed several times with PBS to remove unbound antibody, and then effector T cells (Teff; CD3^+CD4^+CD62L^−CD44+CD127^−), effector/memory T cells (Tem; CD3^+CD4^+CD62L^−CD44^+CD127^+), central memory T cells (Tcm; CD3^+CD4^+CD62L^+CD44^+CD127^+), and naive T cells (Naive; CD3^+CD4^+CD62L^+CD44^−CD127^+) were analyzed by using flow cytometer (FACS verse, BD).

Compound | T cells secreting all three types of cytokines IFN-γ, TNF-α and IL-2 (spleen and lung cells [1]) | effector/memory T of CD4+/CD8+ (spleen and lung cells [2])
monophosphoryl lipid A [MPL] | increased | –
Nc1nc2c(ncn2[C@@H]2O[C@@H]3COP(=O)(O)O[C@H]4[C@@H](O)[C@H](n5cnc6c(=O)[nH]c(N)nc65)O[C@@H]4COP(=O)(O)O[C@H]3[C@H]2O)c(=O)[nH]1 [c-di-GMP, cyclic diguanylate] | increased | significant increase
